We go through 5 molecules from patent US8211924B2, “1-(azolin-2-yl)amino-1,2-diphenylethane compounds for combating animal pests” (BASF SE, priority 2007, dated 2012).

Molecules are shown by their SMILES. Like-named read-outs stand apart in the source and are kept apart here.

What all share (experiment): whole plant or invertebrate
Assay type in all cases: in vivo

Experiment [1] deals with Cotton aphid (Aphis gossypi). To be noted: 120 h, cotton cotyledons dipped, determined after 5 days, read-out: mortality in comparison with untreated controls. The method, then:
Cotton plants in the cotyledon stage (variety ‘Delta Pine’) are infested with approximately 100 laboratory-reared aphids by placing infested leaf sections on top of the test plants. The leaf sections are removed after 24 hours. The cotyledons of the intact plants are dipped into gradient solutions of the test compound. Aphid mortality on the treated plants, relative to mortality on check plants, is determined after 5 days.

Experiment [2] has as its system Green Peach Aphid (Myzus persicae). To be noted: 120 h, pepper leaves dipped, determined after 5 days, read-out: mortality in comparison with untreated controls. As to the method:
Pepper plants in the 2nd leaf-pair stage (variety ‘California Wonder’) are infested with approximately 40 laboratory-reared aphids by placing infested leaf sections on top of the test plants. The leaf sections are removed after 24 hours. The leaves of the intact plants are dipped into gradient solutions of the test compound. Aphid mortality on the treated plants, relative to mortality on check plants, is determined after 5 days.

The next experiment deals with Silverleaf Whitefly. As to conditions: Bemisia argentifolii; for mortality at 10 ppm: concentration 10 ppm; for mortality at 100 ppm: concentration 100 ppm. The method, then:
Selected cotton plants were grown to the cotyledon state (one plant per pot). The cotyledons were dipped into the test solution to provide complete coverage of the foliage and placed in a well-vented area to dry. […] The tip, containing the collected insects, was then gently inserted into the soil containing the treated plant, allowing insects to crawl out of the tip to reach the foliage for feeding. The cups were covered with a re-usable screened lid (150 micron mesh polyester screen PeCap from Tetko Inc). Test plants were maintained in the holding room at about 25° C. and 20-40% relative humid-ity for 3 days avoiding direct exposure to the fluorescent light (24 hour photoperiod) to prevent trapping of heat inside the cup. Mortality was assessed 3 days after treatment of the plants.
by evaluation of the test shown in paragraph III.).

Where [3] appears, read: 72 h, 300 ppm, cotton cotyledons dipped, assessed 3 days after treatment, read-out: mortality in comparison with untreated controls.
Where [4] appears, read: in Gossypium hirsutum, comparative example 1, test of paragraph III, read-out: mortality in comparison with untreated controls [%].
The mark [5] stands for this setting: in Gossypium hirsutum, concentration 300 ppm, comparative example 1, test of paragraph III, read-out: mortality in comparison with untreated controls [%].

The term mortality denotes the share of the test organisms that died. Turning to `Cc1cc(C)cc(CC(N=C2SCCN2C2=NCCS2)c2cccc3c2OC(F)(F)O3)c1` (stereo not drawn) [Example 3, 1-(4,5,4′,5′-tetrahydro-[2,3]-bithiazolyl-2′-ylidene)amino-1-(2,2-difluoro-benzo[1,3]dioxol-4-yl)-2-(3,5-dimethyl-phenyl)-ethane], the mortality at 300 ppm (in experiment [1]; in experiment [2]; in the experiment on Silverleaf Whitefly (setting [3])) was greater than 70% throughout.
With `Cc1cc(C)cc(CC(N=C2SCCN2CCCOC2CCCCO2)c2cccc(Cl)c2Cl)c1` (stereo not drawn) [Example 2, 1-{3-[3-(tetrahydropyran-2-yloxy)propyl]thiazolidin-2-ylidene}amino-1-(2,3-dichlorophenyl)-2-(3,5-dimethylphenyl)-ethane], the mortality at 300 ppm (in experiment [1]; in experiment [2]; in the experiment with Silverleaf Whitefly (setting [3])) was greater than 70% in each case.
Take `Cc1cc(C)cc(CC(NC2=NCCS2)c2cccc(Cl)c2Cl)c1` (stereo not drawn) [compound C.3, reference compound]: in the experiment with Silverleaf Whitefly (setting [4]), the mortality at 10 ppm is 0% and the mortality at 100 ppm came to 100%. Besides, the mortality at 300 ppm in the experiment with Silverleaf Whitefly (setting [5]) is 100%.
On to `Cc1cc(C)cc(CC(N=C2SCCN2C(=S)Nc2cccc(C(F)(F)F)c2)c2cccc(Cl)c2Cl)c1` (stereo not drawn) [Example 4, 2-[1-(2,3-dichlorophenyl)-2-(3,5-dimethylphenyl)ethylimino]-thiazolidine-3-carbothioic acid (3-trifluoromethylphenyl)amide], for which the mortality at 300 ppm in experiment [1] was greater than 70%; in experiment [2] it was greater than 70%; in the experiment with Silverleaf Whitefly (setting [3]), greater than 70%; in the experiment with Silverleaf Whitefly (setting [5]) it was 100%. In addition, the mortality at 10 ppm in the experiment with Silverleaf Whitefly (setting [4]) amounted to 50%. Further, the mortality at 100 ppm in the experiment on Silverleaf Whitefly (setting [4]) was determined as 100%.
In the case of `C#CCN1CCSC1=NC(Cc1cc(C)cc(C)c1)c1cccc(Cl)c1Cl` (stereo not drawn) [Example 1, 1-(3-prop-2-ynyl-thiazolidin-2-ylidene)amino-1-(2,3-dichlorophenyl)-2-(3,5-dimethylphenyl)-ethane], the mortality at 300 ppm in experiment [1] is greater than 70%; in experiment [2], greater than 70%; in the experiment on Silverleaf Whitefly (setting [3]), greater than 70%; in the experiment on Silverleaf Whitefly (setting [5]) it was 100%. For the same molecule, the mortality at 10 ppm in the experiment with Silverleaf Whitefly (setting [4]) came out at 100%. Also, in the experiment with Silverleaf Whitefly (setting [4]), the mortality at 100 ppm amounted to 100%.
